# Source: PubChem BioAssay AID292 (DTP/NCI, 2004)
# Where “and” joins values, the source holds several entries; their conditions need not be identical. Equal values may be shown once. Toxic doses and inconclusive results are not listed.
# System: B6C3F1 mice, ip Sarcoma M5076, median survival T/C
# Experiment: NCI In Vivo Anticancer Drug Screen. Data for tumor model Sarcoma M5076 (intraperitoneal) in B6C3F1 mice
# Conditions: endpoint: median survival time, higher = longer survival
# Method in brief: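 Mice carrying the transplanted tumour received compound treatment. Survival was recorded, and each value is the treated-group measurement divided by that of the vehicle-dosed control group.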
# [1] = dose: 37.5 mg/kg/injection, schedule: Q04DX004 (ip), vehicle: saline
# [2] = dose: 75.0 mg/kg/injection, schedule: Q04DX004 (ip), vehicle: saline
# [3] = dose: 150.0 mg/kg/injection, schedule: Q04DX004 (ip), vehicle: saline
# [4] = dose: 50.0 mg/kg/injection, schedule: Q04DX004 (ip), vehicle: saline with Tween-80
# [5] = dose: 100.0 mg/kg/injection, schedule: Q04DX004 (ip), vehicle: saline with Tween-80
# [6] = dose: 200.0 mg/kg/injection, schedule: Q04DX004 (ip), vehicle: saline with Tween-80
# [7] = dose: 400.0 mg/kg/injection, schedule: Q04DX004 (ip), vehicle: saline with Tween-80
# [8] = dose: 37.5 mg/kg/injection, schedule: Q04DX004 (ip), vehicle: saline with Tween-80
# [9] = dose: 75.0 mg/kg/injection, schedule: Q04DX004 (ip), vehicle: saline with Tween-80
# [10] = dose: 150.0 mg/kg/injection, schedule: Q04DX004 (ip), vehicle: saline with Tween-80
# [11] = dose: 300.0 mg/kg/injection, schedule: Q04DX004 (ip), vehicle: saline with Tween-80
# [12] = dose: 600.0 mg/kg/injection, schedule: Q04DX004 (ip), vehicle: saline with Tween-80
# [13] = dose: 50.0 mg/kg/injection, schedule: Q04DX004 (ip), vehicle: Klucel (hydroxypropylcellulose) (HPC)
# [14] = dose: 100.0 mg/kg/injection, schedule: Q04DX004 (ip), vehicle: Klucel (hydroxypropylcellulose) (HPC)
# [15] = dose: 200.0 mg/kg/injection, schedule: Q04DX004 (ip), vehicle: Klucel (hydroxypropylcellulose) (HPC)
# [16] = dose: 400.0 mg/kg/injection, schedule: Q04DX004 (ip), vehicle: Klucel (hydroxypropylcellulose) (HPC)
# [17] = dose: 800.0 mg/kg/injection, schedule: Q04DX004 (ip), vehicle: Klucel (hydroxypropylcellulose) (HPC)
# [18] = dose: 100.0 mg/kg/injection, schedule: Q04DX004 (ip), vehicle: saline
# [19] = dose: 200.0 mg/kg/injection, schedule: Q04DX004 (ip), vehicle: saline
# [20] = dose: 400.0 mg/kg/injection, schedule: Q04DX004 (ip), vehicle: saline
# [21] = dose: 800.0 mg/kg/injection, schedule: Q04DX004 (ip), vehicle: saline
smiles,measurement,setting,value
COC1OC(COC(C)=O)C(OC(C)=O)C(OC(C)=O)[CH]1[Hg][O]C(C)=O (centres undefined),T/C,"dose: 6.25 mg/kg/injection, schedule: Q04DX004 (ip), vehicle: Klucel (hydroxypropylcellulose) (HPC)",95 % of control
same,T/C,"dose: 12.5 mg/kg/injection, schedule: Q04DX004 (ip), vehicle: Klucel (hydroxypropylcellulose) (HPC)",96 % of control
COC(=O)[C@@]12OC[C@]34[C@H]([C@@H](O)[C@@H]1O)[C@@]1(C)CC(=O)C(OC(=O)CC(=O)OC5=C(C)[C@@H]6C[C@H]7OC(=O)[C@H](OC(=O)/C=C(\C)C(C)C)[C@H]8[C@]9(C(=O)OC)OC[C@]78[C@H]([C@@H](O)[C@@H]9O)[C@@]6(C)CC5=O)=C(C)[C@@H]1C[C@H]3OC(=O)[C@H](OC(=O)/C=C(\C)C(C)C)[C@@H]24,T/C,"dose: 0.75 mg/kg/injection, schedule: Q04DX004 (ip), vehicle: saline + Tween-80 + alcohol",108 % of control
same,T/C,"dose: 1.5 mg/kg/injection, schedule: Q04DX004 (ip), vehicle: saline + Tween-80 + alcohol",118 % of control
same,T/C,"dose: 3.0 mg/kg/injection, schedule: Q04DX004 (ip), vehicle: saline + Tween-80 + alcohol",118 % of control
same,T/C,"dose: 6.0 mg/kg/injection, schedule: Q04DX004 (ip), vehicle: saline + Tween-80 + alcohol",112 % of control
CC(=O)N1CCCN(C)/C1=N/[N+](=O)[O-],T/C,[1],100 % of control
same,T/C,[2],104 % of control
same,T/C,[3],104 % of control
same,T/C,"dose: 300.0 mg/kg/injection, schedule: Q04DX004 (ip), vehicle: saline",100 % of control
Nc1ccc2c(c1)C1(CCC2)NC(=O)NC1=O (centres undefined),T/C,[4],97 % of control
same,T/C,[5],96 % of control
same,T/C,[6],98 % of control
same,T/C,[7],98 % of control
NC(C/[N+]([O-])=N/O)C(=O)O (centres undefined),T/C,"dose: 30.0 mg/kg/injection, schedule: Q04DX005 (ip), vehicle: alkali diluted with saline",93 % of control
same,T/C,"dose: 120.0 mg/kg/injection, schedule: Q04DX005 (ip), vehicle: alkali diluted with saline",103 % of control
same,T/C,"dose: 240.0 mg/kg/injection, schedule: Q04DX005 (ip), vehicle: alkali diluted with saline",118 % of control
CCN(CC)CCOC(=O)c1cc2cc3cc(C(=O)OCCN(CC)CC)c(=O)oc3c(C)c2oc1=O,T/C,[1],100 % of control
same,T/C,[2],92 % of control
same,T/C,[3],93 % of control
CO[C@@H]1C2=CC=CC=C[C@H]2n2c(=O)n(C)c(=O)n21,T/C,"dose: 37.5 mg/kg/injection, schedule: Q04DX004 (ip), vehicle: other",104 % of control
same,T/C,"dose: 75.0 mg/kg/injection, schedule: Q04DX004 (ip), vehicle: other",100 % of control
same,T/C,"dose: 150.0 mg/kg/injection, schedule: Q04DX004 (ip), vehicle: other",100 % of control
same,T/C,"dose: 300.0 mg/kg/injection, schedule: Q04DX004 (ip), vehicle: other",104 % of control
Nc1ccn([C@@H]2C=C(CO)[C@@H](O)[C@H]2O)c(=O)n1,T/C,"dose: 0.13 mg/kg/injection, schedule: Q01DX013 (ip), vehicle: saline",96 % of control
same,T/C,"dose: 0.25 mg/kg/injection, schedule: Q01DX013 (ip), vehicle: saline",104 % of control
same,T/C,"dose: 0.5 mg/kg/injection, schedule: Q01DX013 (ip), vehicle: saline",105 % of control
CCOC(=O)/C=C1\CCC(C)n2c1nccc2=O (centres undefined),T/C,[8],102 % of control
same,T/C,[9],86 % of control
same,T/C,[10],96 % of control
same,T/C,[11],101 % of control
same,T/C,[12],106 % of control
COC(=O)N1C2CCCCC2=NN(c2ccccc2)N1C(=O)OC (centres undefined),T/C,[13],96 % of control
same,T/C,[14],101 % of control
same,T/C,[15],99 % of control
same,T/C,[16],95 % of control
same,T/C,[17],100 % of control
CN(C)C=O,T/C,"dose: 10.0 mg/kg/injection, schedule: Q04DX004 (ip), vehicle: saline",104 % of control
same,T/C,"dose: 20.0 mg/kg/injection, schedule: Q04DX004 (ip), vehicle: saline",111 % of control
same,T/C,"dose: 40.0 mg/kg/injection, schedule: Q04DX004 (ip), vehicle: saline",104 % of control
same,T/C,"dose: 80.0 mg/kg/injection, schedule: Q04DX004 (ip), vehicle: saline",100 % of control
same,T/C,[18],103 % of control
same,T/C,"dose: 160.0 mg/kg/injection, schedule: Q04DX004 (ip), vehicle: saline",104 % of control
same,T/C,[19],107 % of control
same,T/C,[20],100 % of control
same,T/C,[21],107 % of control
same,T/C,"dose: 1600.0 mg/kg/injection, schedule: Q04DX004 (ip), vehicle: saline",108 % of control
COc1ccc(Nc2c3sc4cc(OC)ccc4nc-3c3ccccc3c2=O)cc1,T/C,[8],105 % of control
same,T/C,[9],89 % of control
same,T/C,[10],86 % of control
CN1CCOc2c1cnn(CCO)c2=O,T/C,"dose: 25.0 mg/kg/injection, schedule: Q04DX004 (ip), vehicle: saline with Tween-80",105 % of control
same,T/C,[4],96 % of control
same,T/C,[5],94 % of control
same,T/C,[6],99 % of control
same,T/C,[7],99 % of control
O=c1cc(-c2ccccc2)[nH]c2c1CCCC2,T/C,[9],91 % of control
same,T/C,[10],99 % of control
same,T/C,[11],106 % of control
same,T/C,[12],98 % of control
O=C1N[C@H]2[C@H](O)[C@H](O)[C@@H](O)[C@H](O)[C@@H]2c2cc3c(c(O)c21)OCO3,T/C,"dose: 1.5 mg/kg/injection, schedule: Q04DX004 (ip), vehicle: saline + alcohol",115 % of control and 121 % of control
same,T/C,"dose: 3.0 mg/kg/injection, schedule: Q01DX009 (ip), vehicle: saline + alcohol",162 % of control and 163 % of control
same,T/C,"dose: 6.0 mg/kg/injection, schedule: Q01DX009 (ip), vehicle: saline + alcohol",177 % of control
same,T/C,"dose: 6.25 mg/kg/injection, schedule: Q01DX009 (ip), vehicle: saline + alcohol",152 % of control
N#Cc1ccc(NN=O)nc1,T/C,"dose: 6.25 mg/kg/injection, schedule: Q04DX004 (ip), vehicle: water",124 % of control
same,T/C,"dose: 6.5 mg/kg/injection, schedule: Q04DX004 (ip), vehicle: water",116 % of control
same,T/C,"dose: 25.0 mg/kg/injection, schedule: Q04DX004 (ip), vehicle: water",152 % of control
same,T/C,"dose: 50.0 mg/kg/injection, schedule: Q04DX004 (ip), vehicle: water",160 % of control and 177 % of control
same,T/C,"dose: 83.0 mg/kg/injection, schedule: Q04DX004 (ip), vehicle: water",182 % of control
same,T/C,"dose: 100.0 mg/kg/injection, schedule: Q04DX004 (ip), vehicle: water",118 % of control
same,T/C,"dose: 139.0 mg/kg/injection, schedule: Q04DX004 (ip), vehicle: water",200 % of control
ClCCCN1CCN(CCCl)CC1,T/C,"dose: 0.63 mg/kg/injection, schedule: Q04DX004 (ip), vehicle: saline with Tween-80",99 % of control
same,T/C,"dose: 1.25 mg/kg/injection, schedule: Q04DX004 (ip), vehicle: saline with Tween-80",118 % of control
same,T/C,"dose: 10.0 mg/kg/injection, schedule: Q04DX004 (ip), vehicle: saline with Tween-80",175 % of control
same,T/C,"dose: 20.0 mg/kg/injection, schedule: Q04DX004 (ip), vehicle: saline with Tween-80",94 % of control
CC(=O)C1C(=O)C(=O)N(c2ccc(Cl)cc2)C1=O (centres undefined),T/C,[13],111 % of control
same,T/C,[14],103 % of control
same,T/C,[15],99 % of control
same,T/C,[16],93 % of control
same,T/C,[17],92 % of control
CC(=O)OC1OC(=O)C(C)(C(C)=O)C1C (centres undefined),T/C,"dose: 2.5 mg/kg/injection, schedule: Q04DX004 (ip), vehicle: distilled water + alcohol",100 % of control
same,T/C,"dose: 5.0 mg/kg/injection, schedule: Q04DX004 (ip), vehicle: distilled water + alcohol",105 % of control
same,T/C,"dose: 10.0 mg/kg/injection, schedule: Q04DX004 (ip), vehicle: distilled water + alcohol",104 % of control
same,T/C,"dose: 20.0 mg/kg/injection, schedule: Q04DX004 (ip), vehicle: distilled water + alcohol",104 % of control
same,T/C,"dose: 40.0 mg/kg/injection, schedule: Q04DX004 (ip), vehicle: distilled water + alcohol",95 % of control
NCCCC(N)(C(=O)O)C(F)F (centres undefined),T/C,"dose: 50.0 mg/kg/injection, schedule: Q04DX004 (ip), vehicle: saline",96 % of control
same,T/C,[18],99 % of control
same,T/C,[19],99 % of control
same,T/C,[20],99 % of control
same,T/C,[21],102 % of control
